In patent US11980616B2, “Treating liver disease by selectively eliminating senescent cells” (Buck Institute for Research on Aging, priority 2014, dated 2024):

Key:
[1] = system: senescent mouse embryonic fibroblasts (MEF); experiment: Cell count survival assay, irradiation-induced senescent MEF; assay type: cell-based; conditions: irradiated MEF; 0, 2.5, 10 μM for 9 days
Procedure: (§1) Foreskin fibroblast cell lines HCA2 and BJ, lung fibroblast cell line IMR90, and mouse embryonic fibroblasts were seeded in six-well plates and induced to senesce with 10 Gy of ionizing radiation (IR) or a 24 hr treatment with doxorubicin (Doxo). Senescent phenotype was allowed to develop for at least 7 days, at which point a cell count was made to determine the baseline number of cells. Nutlin-3a treatment was then initiated for a period of at least 9 days. Media alone or media with drug as appropriate was refreshed at least every three days. At the end of the assay time period, cells are counted. Each condition was seeded in three plate wells and counted independently. Initial cell count serves as a control to determine the induction of senescence, as compared to the last day count without nutlin treatment. Initial non-senescent cell count serves as a proxy to determine Nutlin-3a toxicity.
Foreskin fibroblast cell lines HCA2 and BJ, lung fibroblast cell line IMR90, and mouse embryonic fibroblasts were exposed to 10 Gy of ionizing radiation (IR) to induce senescence. […] Percent survival was calculated as [cell count on day 9 of Nutlin-3a treatment/initial cell count on first day of Nutlin-3a treatment].

[2] = system: non-senescent foreskin fibroblasts (Non Sen HCA2); experiment: Cell count toxicity assay, non-senescent HCA2; assay type: cell-based; conditions: 0, 2.5, 10 μM, 9 days
Procedure: as §1
Non-senescent foreskin fibroblasts (HCA2), lung fibroblasts (IMR90), and mouse embryonic fibroblasts (MEF) were treated with varying concentrations (0, 2.5 μM, and 10 μM) of Nutlin-3a for a period of 9 days to assess Nutlin-3a toxicity. Cell counts were taken at the start (NS start) and end of Nutlin-3a treatment. The difference between counts of cells not treated with Nutlin-3a on day 9 (NS 0) and cell counts determined at day zero (NS start) reflects the cell growth over the indicated time period. […]

[3] = system: 3MR mice exposed to bleomycin; experiment: Bleomycin induced lung injury model; assay type: in vivo, mouse
Procedure: One animal model study assessed the effect of clearance of senescence cells in the transgenic mouse strain 3MR that has bleomycin induced lung injury. In the bleomycin injury model for idiopathic pulmonary fibrosis, mice develop lung fibrosis within 7-14 days after bleomycin treatment (see, e.g., Limjunyawong et al., 2014, Physiological Reports 2:e00249; Daniels et al., 2004, J. Clin. Invest. 114:1308-1316). Bleomycin was administered to anesthetized 6-8 week old 3MR mice by intratracheal aspiration (2.5 U/kg of bleomycin in 50 μl PBS) using a microsprayer syringe (Penn-Century, Inc.) as described in Daniels et al. (2004, J. Clin. Invest. 114:1308-1316). Control mice were administered saline. The day following bleomycin treatment, ganciclovir (GCV) (25 mg/kg in PBS) was administered. 3MR mice were treated via intraperitoneal injection with ganciclovir for 5 consecutive days, followed by 5 days of rest, followed by a second treatment cycle of 5 consecutive days. Untreated mice received an equal volume of vehicle. At 7, 14, and 21 days post-bleomycin treatment, lung function was assessed by monitoring oxygen saturation using the MouseSTAT PhysioSuite pulse oximeter (Kent Scientific). Animals were anesthetized with isoflurane (1.5%) and a toe clip was applied. Mice were monitored for 30 seconds and the average peripheral capillary oxygen saturation (SpO2) measurement over this duration was calculated. […] At 21 days post-bleomycin treatment, airway hyper-reactivity (AHR) of mice was examined. AHR of mice was measured by methacholine challenge while other parameters of lung function (airway mechanics, lung volume and lung compliance) were determined using a SCIREQ flexiVent ventilator. While under ketamine/xylazine anesthesia and subjected to cannulation of the trachea via a tracheostomy (19Fr blunt Luer cannula), airway resistance (elastance) and compliance of mice were assessed at baseline and in response to increasing concentrations of methacholine (0 to 50 mg/ml in PBS) delivered via nebulization (AeroNeb) as described in Aravamudan et al. (Am. J. Physiol. Lung Cell. Mol. Physiol. (2012) 303:L669-L681). Animals were maintained at 37° C., and while under muscle paralysis (pancuronium); airway function was measured by using the FlexiVent™ ventilator and lung mechanics system (SCIREQ, Montreal, Quebec, Canada), which was housed on Stabile 8. […] As shown in FIGS. 60B-C, bleomycin administration reduced static compliance and (dynamic) compliance in vehicle treated mice. […] Mice were euthanized by i.p injection of pentobarbital. Bronchoalveolar lavage (BAL) fluids and lungs is obtained and analyzed. Hydroxyproline content of lungs is measured as described in Christensen et al. (1999, Am. J. Pathol. 155:1773-1779), and quantitative histopathology is performed. RNA is extracted from lung tissue to measure senescence cell markers by qRT-PCR in treated and control mice.

[4] = system: LDLR-/-/3MR double transgenic mice fed a HFD; experiment: Atherosclerosis model, LDLR-/-/3MR double transgenic mice fed a HFD; assay type: in vivo, mouse; conditions: vs LDLR-/- HFD controls
Procedure: The study illustrated in FIG. 43B assessed the extent to which […] based clearance of senescent cells from LDLR^−/−/3MR double transgenic mice improves pre-existing atherogenic disease. LDLR^−/−/3MR double transgenic mice (10 weeks) and LDLR^−/− single transgenic mice (10 weeks) are fed a high fat diet beginning at Week 0 until Week 12. Gancyclovir is administered to both groups of mice (25 mg/kg intraperitoneally) from weeks 12-13 and weeks 14-15. At week 16, the level of plaque and the number of senescent cells in the plaques are determined.

[5] = bleomycin exposed mouse, not statistically significant, group size too small
[6] = 25 mg/kg i.p., 21 days post-bleomycin

| Structure (SMILES) | Percent survival [1] | Proliferation (percent growth) [2] | Toxicity (cell number vs starting level) [2] | Lung compliance [3, 5] | Lung elastance [3, 5] | % of the aorta covered with plaque ([4]; 25 mg/kg i.p. weeks 12-13 and 14-15) | Plaque cross-sectional area ([4]; 25 mg/kg i.p.) | Peripheral capillary oxygen saturation (SpO2) ([3]; 25 mg/kg i.p., two cycles of 5 days, 7, 14, 21 days post-bleomycin) | Lung elastance [3, 6] | Static compliance and (dynamic) compliance [3, 6] |
| --- | --- | --- | --- | --- | --- | --- | --- | --- | --- | --- |
| COc1ccc(C2=N[C@@H](c3ccc(Cl)cc3)[C@@H](c3ccc(Cl)cc3)N2C(=O)N2CCNC(=O)C2)c(OC(C)C)c1 [Nutlin-3a] | reduced cell survival | reduces proliferation | non-toxic | increased lung compliance | reduced lung elastance | – | – | – | – | – |
| Nc1nc(O)c2ncn(COC(CO)CO)c2n1 [ganciclovir] | – | – | – | – | – | reduces the % of the aorta covered with plaque | reduced the plaque cross-sectional area | higher SpO2 levels | reduced lung elastance | improved compliance values significantly |
